Like-named read-outs stand apart in the source and are kept apart here.
Key:
Assay in all cases: cells
Parameters in all cases: species or system AML cell lines (8); Secondary HTS, 10-point dose-response in triplicate, Cell Titer Glo viability, four-parameter fit EC50
CMS = settings: read-out: CMS
CHRF288-11 = settings: read-out: CHRF288-11
U937 = settings: Homo sapiens, read-out: U937
M07e = settings: M-07e, read-out: M07e
MOLM-13 = settings: Homo sapiens, read-out: MOLM-13
CMK = settings: Homo sapiens, read-out: CMK
ML-2 = settings: Homo sapiens, read-out: ML-2
MV4-11 = settings: Homo sapiens, read-out: MV4-11

EC50 (U937; U-937, 72 h) | EC50 (MOLM-13; MOLM-13, 72 h) | EC50 (MV4-11; MV4-11, 72 h) | SMILES | EC50 (CMS; 72 h) | EC50 (CHRF288-11; 72 h) | EC50 (M07e; 72 h) | EC50 (CMK; CMK, 72 h) | EC50 (ML-2; ML-2, 72 h) | EC50 (CMS; 72 h cell viability) | EC50 (CHRF288-11; 72 h cell viability) | EC50 (U937; U-937, 72 h cell viability) | EC50 (M07e; 72 h cell viability) | EC50 (MOLM-13; 72 h cell viability) | EC50 (CMK; 72 h cell viability) | EC50 (ML-2; 72 h cell viability) | EC50 (MV4-11; 72 h cell viability)
> 10 µM | > 10 µM | > 10 µM | Nc1ncnc2c1ncn2[C@@H]1O[C@H](C(=O)N2CCN(CC(=O)Nc3cccc4c3CNC4=O)CC2)[C@@H](O)[C@H]1O [SJ000785896, EB-47] | > 10 µM | > 10 µM | > 10 µM | > 10 µM | > 10 µM |  |  |  |  |  |  |  | 
> 10 µM | > 10 µM | > 10 µM | CCCCCCCCCCCCCCCc1cccc(O)c1C(=O)O [SJ000785900, ANACARDIC ACID] | > 10 µM | > 10 µM | > 10 µM | > 10 µM | > 10 µM |  |  |  |  |  |  |  | 
> 10 µM | > 10 µM | > 10 µM | COc1cc2c(NC3CCN(C)CC3)nc(N3CCCN(C)CC3)nc2cc1OCCOCCN(C)C [SJ000785901, UNC0321] | > 10 µM | > 10 µM | > 10 µM | > 10 µM | > 10 µM |  |  |  |  |  |  |  | 
0.75 µM | 1.4 µM | 1.2 µM | Cc1cc(Nc2ccc(NC(=O)c3ccc(Nc4ccnc5ccccc45)cc3)cc2)nc(N)n1 [SJ000785906, SGI-1027] | 9.9 µM | 2.8 µM | 1.6 µM | > 10 µM | 2.6 µM |  |  |  |  |  |  |  | 
 |  |  | C[C@@H]1NC(=O)[C@H]2CCCN2C(=O)[C@H](CCCCCC(=O)[C@@H]2CO2)NC(=O)[C@@H](C)NC1=O [SJ000785910, HC TOXIN] |  |  |  |  |  | 0.029 µM | 0.05 µM | 0.032 µM | 0.021 µM | 0.15 µM | > 10 µM | 0.11 µM | > 10 µM
> 10 µM | > 10 µM | > 10 µM | O=C(NC(NC(=S)Nc1ccc(F)c([N+](=O)[O-])c1)C(Cl)(Cl)Cl)C(c1ccccc1)c1ccccc1 (stereo not drawn) [SJ000786007, CGK 733] | > 10 µM | > 10 µM | > 10 µM | > 10 µM | > 10 µM |  |  |  |  |  |  |  | 
> 10 µM | > 10 µM | > 10 µM | Cc1cc2nc(NCCCO)n(CC(=O)c3cc(C(C)(C)C)c(O)c(C(C)(C)C)c3)c2cc1C [SJ000786025, CID-2858522] | > 10 µM | > 10 µM | > 10 µM | > 10 µM | > 10 µM |  |  |  |  |  |  |  | 
> 10 µM | > 10 µM | > 10 µM | N[C@H](CCC(=O)N[C@@H](Cc1c[nH]c2ccccc12)C(=O)O)C(=O)O [SJ000795988, GOLOTIMOD] | > 10 µM | > 10 µM | > 10 µM | > 10 µM | > 10 µM |  |  |  |  |  |  |  | 
> 10 µM | 0.0063 µM | > 10 µM | CC(C)Oc1ccc(-c2cnc3c(-c4ccnc5ccccc45)cnn3c2)cc1 [SJ000796016, DMH-1] | > 10 µM | > 10 µM | > 10 µM | > 10 µM | > 10 µM |  |  |  |  |  |  |  | 
> 10 µM | > 10 µM | > 10 µM | Cc1nn(C)c(C)c1C(=O)N1CCN(Cc2nc3ccccc3n2CC(C)(C)C)CC1 [SJ000796025, FTASE INHIBITOR III] | > 10 µM | > 10 µM | > 10 µM | 3.1 µM | > 10 µM |  |  |  |  |  |  |  | 
> 10 µM | 0.021 µM | 0.0098 µM | COC1=C2C[C@@H](C)C[C@H](OC)[C@H](O)[C@@H](C)/C=C(\C)[C@H](OC(N)=O)[C@@H](OC)/C=C\C=C(/C)C(=O)NC(=CC1=O)C2=O [SJ000796035, GELDANOMYCIN] | > 10 µM | > 10 µM | > 10 µM | > 10 µM | > 10 µM |  |  |  |  |  |  |  | 
> 10 µM | > 10 µM | > 10 µM | COc1ccc(/C=C/c2ccccc2F)cc1 [SJ000796052, CAY10512] | > 10 µM | > 10 µM | > 10 µM | > 10 µM | > 10 µM |  |  |  |  |  |  |  | 
> 10 µM | > 10 µM | > 10 µM | COC(=O)[C@H](CCSC)NC(=O)c1ccc(NC[C@@H](N)CS)cc1-c1ccccc1 [SJ000803699, FTI-277] | > 10 µM | > 10 µM | > 10 µM | > 10 µM | > 10 µM |  |  |  |  |  |  |  | 
> 10 µM | 2.5 µM | 5 µM | O=C(c1cn(Cc2cncn2Cc2ccc(Br)cc2)cc1-c1cccc2ccccc12)N1CCOCC1 [SJ000803701, LB 42708] | 3.4 µM | > 10 µM | > 10 µM | > 10 µM | 2.3 µM |  |  |  |  |  |  |  | 
2 µM | > 10 µM | > 10 µM | CSCC[C@@H](NC(=O)c1ccc(CNCc2cnc[nH]2)cc1-c1ccccc1C)C(=O)OCc1ccccc1 [SJ000803709, FTI-2628] | > 10 µM | > 10 µM | > 10 µM | > 10 µM | > 10 µM |  |  |  |  |  |  |  | 
2.7 µM | > 10 µM | > 10 µM | CSCC[C@H](NC(=O)c1ccc(NC(=O)[C@@H](N)CS)cc1)C(=O)O [SJ000803714, H-CYS-4-ABZ-MET-OH] | > 10 µM | > 10 µM | > 10 µM | > 10 µM | > 10 µM |  |  |  |  |  |  |  | 
> 10 µM | 1.1 µM | > 10 µM | COC(=O)[C@H](CC(C)C)NC(=O)c1ccc(NCc2cnc[nH]2)cc1-c1cccc2ccccc12 [SJ000803715, GGTI-2147] | > 10 µM | > 10 µM | > 10 µM | > 10 µM | > 10 µM |  |  |  |  |  |  |  | 
> 10 µM | 8 µM | > 10 µM | Cc1cc(C(C)Nc2ccccc2)c2nc(N3CCOCC3)cc(=O)n2c1 (stereo not drawn) [SJ000803731, TGX-221] | > 10 µM | > 10 µM | > 10 µM | > 10 µM | > 10 µM |  |  |  |  |  |  |  | 
1.5 µM | > 10 µM | > 10 µM | O=C(c1ccc(Nc2nccc(-c3cc4ccccc4s3)n2)cc1)N1CCC(N2CCCC2)CC1 [SJ000806482, IKK 16] | 0.45 µM | 1 µM | 4.4 µM | 2.8 µM | 0.42 µM |  |  |  |  |  |  |  | 

SMILES | EC50 (U937; U-937, 72 h) | EC50 (MOLM-13; MOLM-13, 72 h) | EC50 (MV4-11; MV4-11, 72 h) | EC50 (CMS; 72 h) | EC50 (CHRF288-11; 72 h) | EC50 (M07e; 72 h) | EC50 (CMK; CMK, 72 h) | EC50 (ML-2; ML-2, 72 h) | EC50 (CMS; 72 h cell viability) | EC50 (CHRF288-11; 72 h cell viability) | EC50 (U937; U-937, 72 h cell viability) | EC50 (M07e; 72 h cell viability) | EC50 (MOLM-13; 72 h cell viability) | EC50 (CMK; 72 h cell viability) | EC50 (ML-2; 72 h cell viability) | EC50 (MV4-11; 72 h cell viability)
CC(C)(O)[C@@H]1CC[C@](C)([C@H]2[C@@H](O)C[C@@]3(C)[C@@H]4C[C@H](O[C@@H]5O[C@H](CO)[C@@H](O)[C@H](O)[C@H]5O)[C@H]5C(C)(C)[C@@H](O[C@@H]6OC[C@@H](O)[C@H](O)[C@H]6O)CC[C@@]56C[C@@]46CC[C@]23C)O1 [SJ000785909, ASTRAGALOSIDE IV] | > 10 µM | 4.3 µM | > 10 µM | > 10 µM | 0.81 µM | > 10 µM | > 10 µM | 0.87 µM |  |  |  |  |  |  |  | 
Cc1ccc(C(=O)COC(=O)c2cccc(NC(=O)c3ccc([N+](=O)[O-])cc3[N+](=O)[O-])c2)cc1 [SJ000796012, FM19G11] | > 10 µM | > 10 µM | > 10 µM | > 10 µM | > 10 µM | > 10 µM | > 10 µM | > 10 µM |  |  |  |  |  |  |  | 
CCNC(=O)c1cc2c(-c3cc(OCCN4CCCC4)c(Cl)cc3Cl)nc(N)nc2s1 [SJ000796085, NVP-BEP800] | 0.15 µM | 0.087 µM | 0.11 µM | 0.4 µM | 0.43 µM | > 10 µM | 0.19 µM | 0.21 µM |  |  |  |  |  |  |  | 
CSCC[C@H](NC(=O)[C@H](Cc1ccccc1)NC[C@@H](NC[C@@H](N)CS)C(C)C)C(=O)O [SJ000803726, FTASE INHIBITOR I] | > 10 µM | > 10 µM | > 10 µM | > 10 µM | > 10 µM | > 10 µM | > 10 µM | > 10 µM |  |  |  |  |  |  |  | 
Cc1c(N)nc([C@H](CC(N)=O)NC[C@H](N)C(N)=O)nc1C(=O)N[C@H](C(=O)N[C@H](C)[C@@H](O)[C@H](C)C(=O)N[C@H](C(=O)NCCc1nc(-c2nc(C(=O)NCCC[S+](C)C)cs2)cs1)[C@@H](C)O)[C@@H](OC1OC(CO)C(O)C(O)C1OC1OC(CO)C(O)C(OC(N)=O)C1O)c1cnc[nH]1 (stereo partly drawn) [SJ000804032, BLEOMYCIN] | > 10 µM | 6.9 µM | > 10 µM | > 10 µM | > 10 µM | > 10 µM | > 10 µM | > 10 µM |  |  |  |  |  |  |  | 

Reference: article PMC6522510 (Nature Communications, 2019)
